Test results as given in US9403916B2, “Polysaccharide-and polypeptide-based block copolymers, vesicles constituted by these copolymers and use thereof” (priority 2008, dated 2016).
pIC50: −log10 of the molar value.

What was measured:
cells of rat glioma C6 = assay: Cellular viability (toxicity) MTT test; assay type: cell-based; details: 48 h, read-out: IC50 (concentration for which half of the cells remain viable)
Experimental: Experiments of toxicity and release in vitro were performed using vesicles based on hyaluronic acid-block-poly(γ-benzyl L-glutamate) diblock copolymer prepared in Example 6, containing 11% of doxorubicin. The in-vitro experiments were performed on cells of rat glioma C6, in Dulbecco's modified Eagle's medium (DMEM) containing 5% of foetal calf serum. The C6 cells (5×10^5 cells) are placed in bottles of 10 cm diameter and are grown in 10 ml of culture medium containing penicillin (10000 μg/mL), streptomycin (10000 μg/mL) and amphotericin B (25 μg/mL) [Invitrogen Corporation] in an incubator at 37° C. in a controlled atmosphere with 5% CO2. For the tests of cellular viability (or toxicity), C6 cells were incubated in a 24-well plate (15×10^4 cells per well), for 24 h. Viability was determined by a conventional test with tetrazolium salt MTT (3-(4,5-dimethylthiazol-2-yl)-2,5-diphenyl tetrazolium bromide). The tetrazolium that it contains is reduced to formazan by the mitochondrial succinate dehydrogenase of the active living cells. The colour of the medium then changes from yellow to purplish-blue. The intensity of this coloration is proportional to the number of living cells present during the test. Analysis is performed by spectrophotometry (U-2800A, HITACHI), measuring the absorbance at 570 nm. […]

[1] = test system: DMBA-induced tumour in female Sprague-Dawley rats; assay: Antitumour efficacy in DMBA-induced tumour, tumour regression and survival; assay type: in vivo; details: rat, single intravenous dose 5 mg/kg doxorubicin
Experimental: Female Sprague-Dawley rats aged 8 weeks (120-140 g) were used in a study of tumour regression.
7,12-dimethylbenz[α]anthracene (DMBA) was administered orally (in soya oil) to the animals in 3 doses of 45 mg/kg at one-week intervals, to generate the tumour.
The treatment with doxorubicin was given 10 weeks after the last dose of DMBA. The width of the tumour (w) and its length (l) were recorded with callipers and the size of the tumour was calculated from the formula (w×l^2/2).
After 10 weeks from tumour induction, the animals with tumours were separated and divided randomly into different treatment groups, then treated with a single dose of 250 μl of doxorubicin by intravenous route at 5 mg/kg, either in the form of free doxorubicin, or in the form of doxorubicin encapsulated in the micellar vesicles of Example 6.
The control group received a single dose of 250 μl of PBS buffer (pH 7.4) by the intravenous route.
The study was terminated […] after treatment.
Observation of the survival of the animals with a tumour, which were treated, was continued until 60 days after treatment.

In the case of `COc1cccc2c1C(=O)c1c(O)c3c(c(O)c1C2=O)C[C@@](O)(C(=O)CO)C[C@@H]3O[C@H]1C[C@H](N)[C@H](O)[C@H](C)O1` [free doxorubicin, doxorubicin], the pIC50 (cells of rat glioma C6) was 6.08, the “tumour growth in comparison with control group treated with PBS” value [1] was “significantly inhibit tumour growth” and the “tumour regression after 15 days of treatment” value [1] was “regression reaches a plateau”.
